Source: patent US20240327393A1 (SIRONAX LTD., priority 2021, published 2024)

Test system: HT-1080 (ATCC, CCL-121) cells
Experiment: HT-1080 cell viability assay with ferroptosis inducer RSL3 (Cell Titer-Glo)
Assay type: cell-based
Conditions: Homo sapiens; HT-1080 cells treated with RSL3; 3-fold, 10-point dilution, 1.1 μM highest concentration; Table 2; read-out: EC50 (nM), ferroptosis inhibitory activity
Procedure, shortened: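 HT-1080 cells (6000 per well) were cultured overnight at 37 °C, then co-treated with RSL3 and compound in a 3-fold, 10-point series topping at 1.1 μM. Viability was read by CellTiter-Glo luminescence and normalized to untreated controls. EC50 came from a sigmoidal non-linear regression fit.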

Structure (SMILES) | EC50
CN1Cc2ccc(Nc3ccc(N4CCC(C(F)(F)F)CC4)cc3)cc2C1=O [Compound 171, 2-methyl-6-((4-(4-(trifluoromethyl)piperidin-1-yl)phenyl)amino) isoindolin-1-one] | 0.1 to 100 nM
CN1Cc2cc(Nc3ccc(N4CCC(F)(F)CC4)cc3)ccc2C1=O [Compound 172, 5-((4-(4,4-difluoropiperidin-1-yl)phenyl)amino)-2-methylisoindolin-1-one] | 0.1 to 100 nM
CN1Cc2cc(Nc3ccc(N4CCC(C(F)(F)F)CC4)cc3)ccc2C1=O [Compound 173, 2-methyl-5-((4-(4-(trifluoromethyl)piperidin-1-yl)phenyl)amino) isoindolin-1-one] | 0.1 to 100 nM
CC1CCN(c2ccc(Nc3ccc4c(c3)CN(C)C4=O)cc2)CC1 [Compound 174, 2-methyl-5-((4-(4-methylpiperidin-1-yl)phenyl)amino)isoindolin-1-one] | 0.1 to 100 nM
CCN1Cc2ccc(Nc3ccc(N4CCC(C(F)(F)F)CC4)cc3)cc2C1 [Compound 175, 2-ethyl-N-(4-(4-(trifluoromethyl)piperidin-1-yl)phenyl)isoindolin-5-amine] | 0.1 to 100 nM
CCN1Cc2ccc(Nc3ccc(N4CCC(C)CC4)cc3)cc2C1 [Compound 176, 2-ethyl-N-(4-(4-methylpiperidin-1-yl)phenyl)isoindolin-5-amine] | 0.1 to 100 nM
CCN1Cc2ccc(Nc3ccc(N4CCCCC4)c(C(F)(F)F)c3)cc2C1 [Compound 177, 2-ethyl-N-(4-(piperidin-1-yl)-3-(trifluoromethyl)phenyl)isoindolin-5-amine] | 0.1 to 100 nM
CN1Cc2cc(Nc3ccc(N4CCCCC4)c(C(F)(F)F)c3)ccc2C1=O [Compound 178, 2-methyl-5-((4-(piperidin-1-yl)-3-(trifluoromethyl)phenyl)amino) isoindolin-1-one] | 0.1 to 100 nM
O=C1c2ccc(Nc3ccc(N4CCC(C(F)(F)F)CC4)cc3)cc2CN1CC1CC1 [Compound 179, 2-(cyclopropylmethyl)-5-((4-(4-(trifluoromethyl)piperidin-1-yl)phenyl)amino)isoindolin-1-one] | 0.1 to 100 nM
CCN1Cc2cc(Nc3ccc(N4CCC(C(F)(F)F)CC4)cc3)ccc2C1=O [Compound 180, 2-ethyl-5-((4-(4-(trifluoromethyl)piperidin-1-yl)phenyl)amino) isoindolin-1-one] | 0.1 to 100 nM
CC(C)(C)C(=O)N1Cc2ccc(Nc3ccc(N4CCC(C(F)(F)F)CC4)cc3)cc2C1 [Compound 181, 2,2-dimethyl-1-(5-((4-(4-(trifluoromethyl)piperidin-1-yl)phenyl)amino)isoindolin-2-yl)propan-1-one] | 0.1 to 100 nM
O=C1NCc2cc(Nc3ccc(N4CCC(C(F)(F)F)CC4)cc3)ccc21 [Compound 182, 5-((4-(4-(trifluoromethyl)piperidin-1-yl)phenyl)amino)isoindolin-1-one] | 0.1 to 100 nM
CN1Cc2cc(Nc3cnc(N4CCCCC4)c(F)c3)ccc2C1=O [Compound 183, 5-((5-fluoro-6-(piperidin-1-yl)pyridin-3-yl)amino)-2-methylisoindolin-1-one] | 0.1 to 100 nM
CC1CCN(c2ccc(Nc3ccc4c(c3)CN(CC3CC3)C4=O)cc2)CC1 [Compound 184, 2-(cyclopropylmethyl)-5-((4-(4-methylpiperidin-1-yl)phenyl)amino) isoindolin-1-one] | 0.1 to 100 nM
O=C1c2ccc(Nc3ccc(N4CCCCC4)cc3)cc2CN1CC1CC1 [Compound 185, 2-(cyclopropylmethyl)-5-((4-(piperidin-1-yl)phenyl)amino)isoindolin-1-one] | 0.1 to 100 nM
CC(=O)N1Cc2ccc(Nc3ccc(N4CCC(C(F)(F)F)CC4)cc3)cc2C1 [Compound 186, 1-(5-((4-(4-(trifluoromethyl)piperidin-1-yl)phenyl)amino)isoindolin-2-yl) ethan-1-one] | 0.1 to 100 nM
Cn1oc2cc(Nc3ccc(N4CCC(C(F)(F)F)CC4)cc3)ccc2c1=O [Compound 187, 2-methyl-6-((4-(4-(trifluoromethyl)piperidin-1-yl)phenyl)amino)benzo[d]isoxazol-3(2H)-one] | 0.1 to 100 nM
